{
  "source": "patent US9089133B2",
  "about": "“Insecticide for agricultural or horticultural use and method of use thereof” (MITSUI CHEMICALS, INC., priority 2003, dated 2015)",
  "key": {"[1]": {"test_system": "Diamondback Moth (Plutella xylostella)", "experiment": "Insecticidal test for diamondback moth (cabbage leaf dip)", "format": "in vivo", "conditions": "foliar, 72 h, cabbage leaf immersed 30 seconds, 2nd-instar larvae, 25° C., three days after", "protocol": "Insecticidal Test for Diamondback Moth (Plutella xylostella)\n(§1) A cabbage leaf pieces was immersed in a solution prepared by diluting a test compound to a predetermined concentration for 30 seconds, and then dried in air. Then, the leaf piece was placed in a polyethylene cup of 7 cm-size in which 2nd-instar larvae of […] were placed. The cup was allowed to stand in a thermostatic chamber at 25° C. Three days after, the numbers of living and dead larvae were counted. The test was carried out in two replications each containing five larvae."}, "[2]": {"test_system": "Common Cutworm (Spodoptera litura)", "experiment": "Insecticidal test for common cutworm (cabbage leaf dip)", "format": "in vivo", "conditions": "foliar, 72 h, cabbage leaf immersed 30 seconds, 2nd-instar larvae, 25° C., three days after", "protocol": "Insecticidal Test for Common Cutworm (Spodoptera litura)\nas §1, with “cabbage leaf piece was immersed” for “cabbage leaf pieces was immersed”, “Then, the cabbage leaf piece” for “Then, the leaf piece”"}},
  "data": [
    {"smiles": "O=C(Nc1cccc(C(=O)Nc2ccc(C(F)(F)F)cc2C(F)(F)F)c1)OCC(F)(F)C(F)(F)F", "note": "[Compound No. 250, N-(2,4-bistrifluoromethylphenyl) 3-[(2,2,3,3,3-pentafluoro-n-propyloxy)carbonylamino]benzamide]", "values": [
      {"measurement": "mortality at 1000 ppm", "setting": "[1]", "value": "≥ 70", "unit": "%"},
      {"measurement": "mortality at 1000 ppm", "setting": "[2]", "value": "≥ 70", "unit": "%"}
    ]}
  ]
}
